Eight compounds from PubChem BioAssay (NCI) can be followed below.

Test systems include M19-MEL melanoma; SNB-78 CNS; HOP-18 NSCLC; LXFL 529 NSCLC; XF 498 CNS; RXF-631 renal; KM20L2 colon; DLD-1 colon; DMS 114 small cell lung.
Holding throughout (test): NCI anticancer screen, dose series, 48 h

Structures are written as SMILES.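 Values below derive from 48-hour exposures of cells grown in 96-well plates, with endpoints linearly interpolated between the two concentrations bracketing the appropriate inhibition level. TGI denotes the concentration required for complete inhibition of growth.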

Regarding `COC(=O)C(=O)C(C(=O)C1=NS(=O)(=O)c2cc(S(N)(=O)=O)c(Cl)cc2N1)c1nc2ccc(C(=O)c3ccccc3)cc2[nH]c1=O` (configuration not stated), the TGI in the assay with M19-MEL melanoma, in the assay on SNB-78 CNS, in the assay on HOP-18 NSCLC, in the assay with LXFL 529 NSCLC, with XF 498 CNS and in the assay on RXF-631 renal was above 100 µM in each case. The TGI with KM20L2 colon was above 100 µM.

For `C1CCC(OCc2nnn3c2CCC3)OC1` (configuration not stated), the TGI in the assay on M19-MEL melanoma, in the assay with DLD-1 colon, in the assay with SNB-78 CNS, in the assay with LXFL 529 NSCLC, with XF 498 CNS and in the assay with KM20L2 colon was above 100 µM in each case.

As for `CN1C(=O)CN2C(Cl)(Cl)C2(c2ccccc2F)c2cc([N+](=O)[O-])ccc21` (configuration not stated), the TGI with DMS 114 small cell lung, in the assay on M19-MEL melanoma, with DLD-1 colon, in the assay on LXFL 529 NSCLC and in the assay on KM20L2 colon was above 100 µM throughout.

Consider `O=c1oc2ccccc2n1P(=O)(n1c(=O)oc2ccccc21)n1c(=O)oc2ccccc21`, for which the TGI in the assay with DMS 114 small cell lung, with M19-MEL melanoma, with DLD-1 colon, in the assay on SNB-78 CNS, in the assay on LXFL 529 NSCLC and with XF 498 CNS was above 100 µM throughout. The TGI in the assay on RXF-631 renal and with KM20L2 colon was above 100 µM each time.

In the case of `CN(C)CC1CCCC(CN2CCCCC2)C1=O` (configuration not stated), the TGI was above 23.4 µM in the assay on DMS 114 small cell lung; 34.7 µM in the assay on M19-MEL melanoma; 8.92 µM in the assay with DLD-1 colon; 23.9 µM in the assay with SNB-78 CNS; 4.71 µM in the assay on HOP-18 NSCLC; 41.6 µM in the assay on KM20L2 colon.

On to `C=C1C(=O)OC2/C=C(\C)C3OC3/C=C(/C(=O)OC)C(O)C(OC(=O)C3(C)OC3C)C12` (configuration not stated), for which the TGI was found to be 1.94 µM in the assay with DMS 114 small cell lung, 2.94 µM in the assay with DLD-1 colon, 3.97 µM in the assay with SNB-78 CNS and 2.8 µM with LXFL 529 NSCLC.

In the case of `CC(N)C(=O)OCN1C(=O)C2C3C=CC(C2C1=O)C1C2C(=O)N(COC(=O)C(C)N)C(=O)C2C31` (configuration not stated), the TGI in the assay with DMS 114 small cell lung was 36.5 µM; in the assay on M19-MEL melanoma, 40 µM; in the assay on DLD-1 colon it was 54.4 µM; with SNB-78 CNS, above 100 µM; in the assay with HOP-18 NSCLC, above 100 µM; in the assay on LXFL 529 NSCLC, 60.8 µM. Further, the TGI in the assay with XF 498 CNS worked out at 47.5 µM; with KM20L2 colon, 72.2 µM.

Take `Nc1nc(Cl)cc(NCCCNc2cc(Cl)nc(N)n2)n1`: the TGI with DMS 114 small cell lung, in the assay with M19-MEL melanoma, in the assay with DLD-1 colon, with HOP-18 NSCLC, in the assay on LXFL 529 NSCLC and with XF 498 CNS was above 100 µM throughout. In addition, the TGI with RXF-631 renal and with KM20L2 colon was above 100 µM throughout.
